Assay results from PMC8838982 (Bioorganic chemistry, 2021).
Where two headings read alike, the source gives them in different places.

Legend:
[1] = molecular target: influenza virus polymerase (Influenza A virus, UniProt P03433); experiment: cell-based; type: cell-based, influenza virus A/PR/8/34
[2] = molecular target: Pandemic H1N1 N-terminal PA endonuclease (PAN) (Influenza A virus, UniProt C3W5S0); experiment: FRET-based; type: biochemical
[3] = Inhibition of polymerase activity EC50
[4] = read-out: Inhibition of polymerase activity EC50

| Compound | EC50 [1, 3] [µM] | IC50 [2] [nM] | further results |
| --- | --- | --- | --- |
| O=C1c2c(ccc(O)c2O)CN1Cc1ccccc1 [Compound 14, 2-benzyl-6,7-dihydroxyisoindolin-1-one] | 12 | 23 to 46 |  |
| O=C1c2c(ccc(O)c2O)CN1Cc1ccc(F)c(Cl)c1 [Compound 15, 2-(3-chloro-4-fluorobenzyl)-6,7-dihydroxyisoindolin-1-one] | 3.6 | 23 to 46 | EC50/IC50 ratio (cellular versus enzyme assay) [1]: 145 |
| Cc1ccc(CN2Cc3ccc(O)c(O)c3C2=O)cc1 [Compound 16, 2-(4-methylbenzyl)-6,7-dihydroxy-isoindolin-1-one] |  |  | EC50 [1, 4]: 4.1 µM |
| O=C1c2c(ccc(O)c2O)CN1Cc1ccc(O)cc1 [Compound 17, 2-(4-hydroxybenzyl)-6,7-dihydroxy-isoindolin-1-one] | 4.2 | 23 to 46 | Fold increase in EC50 compared to wild-type [1]: 1.0 fold |
| O=C1c2c(ccc(O)c2O)CN1Cc1ccc(F)cc1 [Compound 18, 2-(4-fluorobenzyl)-6,7-dihydroxyisoindolin-1-one] | 8.2 | 23 to 46 |  |
| O=C1c2c(ccc(O)c2O)CN1Cc1ccc(C(F)(F)F)cc1 [Compound 19, 2-(4-(trifluoromethyl)benzyl)-6,7-dihydroxy-isoindolin-1-one] | 19 |  | Reduction of PAN inhibitory activity compared to the 4-F analogue 18 ([2]; factor, relative to 18): 9 fold |
| O=C1c2c(ccc(O)c2O)CN1Cc1ccc([N+](=O)[O-])cc1 [Compound 20, 2-(4-nitrobenzyl)-6,7-dihydroxy-isoindolin-1-one] | 28 | 23 to 46 |  |
| O=C1c2c(ccc(O)c2O)CN1Cc1ccc2ccccc2c1 [Compound 21, 2-(naphthalen-2-ylmethyl)-6,7-dihydroxy-isoindolin-1-one] | 5.4 | 30 |  |
| O=C1c2c(ccc(O)c2O)CN1Cc1cccc2ccccc12 [Compound 22, 2-(naphthalen-1-ylmethyl)-6,7-dihydroxy-isoindolin-1-one] | 26 |  |  |
| O=C1c2c(ccc(O)c2O)CN1CCc1ccc(O)cc1 [Compound 23, 2-(4-hydroxyphenethyl)-6,7-dihydroxy-isoindolin-1-one] |  |  | EC50 [1, 4]: 19 µM |
| NC(=O)c1ncn([C@@H]2O[C@H](CO)[C@@H](O)[C@H]2O)n1 [Ribavirin, ribavirin] | 11 |  |  |
| baloxavir acid [BXA] |  |  | Fold increase in EC50 compared to wild-type [1]: 1.0 fold; EC50 [1, 4]: 0.0016 µM |
